# “And” between values parts separate entries of the source, which are not always exact repeats. Equal entries are not always repeated. Where two headings read alike, the source gives them in different places.
# Key:
# [1] = Plasma pharmacokinetics of Ge in mice after i.v., i.n. and i.g. administration of Gardenia-Borneol co-compound; type: in vivo; details: for bioavailability / Cmax / AUC(0-t) / MRT last / Tmax: mouse; for bioavailability: read-out: F (absolute bioavailability); for Cmax / AUC(0-t) / MRT last / Tmax: 18 mg/kg gardenia extract + 18 mg/kg borneol; for AUC(0-t): read-out: AUC0–120 (converted); for MRT last: read-out: MRT0–120 (converted)
# Protocol: Non-compartmental analysis of pharmacokinetic data was performed by Kinetica 4.4 software. The absolute bioavailability was F, F = AUCblood (i.n./i.g.)/AUCblood (i.v.) × 100%.
# (§1) The separation was carried out using a Diamonsil C18 column ([…], i.d., 5.0 μm) under the following chromatographic conditions: column temperature, 25 °C; sample injection volume, 20 μL; flow rate, 1.0 mL/min; detection wavelength, 238 nm; and mobile phase, acetonitrile-water(14:86).
# (§2) 1% (v/v) of Tween-80 and 20% (v/v) ethanol were dissolved in physiological saline and used as the solvent for drugs. 1.2 g of borneol fine powder and 1.2 g gardenia extract were dissolved into 10 mL solvent, named as co-compound nasal drops. Dilute 0.3 mL of nasal drops precisely with 1% Tween 80-normal saline solution into 10 mL, filtrate by 0.22 μm filter, named as co-compound injection. Dilute 0.3 mL of nasal drops precisely with 1% Tween 80-normal saline solution into 10 mL, named as co-compound intragastric solution.
# (§3) 120 mice were divided into 3 groups (A, B, C), equally and randomly, 40 for each group. Group A was injected 0.1 mL co-compound injection via the tail vein. Group B was treated 3 μL nasal drops with a soft PE polyethylene tube after anesthesia by ether steam. Group C was treated 0.1 mL co-compound intragastric solution. The doses chosen for the mice were 18mg/kg·d (borneol and gardenia extract, respectively), 3 times based on the doses for human beings. The blood samples were collected into heparinized tubes by pricking the eyeball. Then, mice were killed by decollation. The corresponding brains were also collected at 1, 3, 5, 10, 30, 60, 90 and 120 min after drug administration. The brains were accurately weighed, and plasma was obtained after centrifugation. The sample processing and determination were immediately made when plasma and brain tissue were obtained.
# Plasma sample (100 μL) was placed into a centrifuge tube. To precipitate proteins in the sample, 300 μL acetonitrile was added and vortexed for 1 min. After centrifugation at 10,000 rpm for 10 min, supernatant was removed and evaporated under air stream in a water bath at 60 °C. The residue was dissolved in 100 μL of methanol and vortexed for 30 s, centrifuged at 10,000 rpm for 10 min. 20 μL of supernatant was injected into the HPLC system for analysis.
# [2] = Brain pharmacokinetics and brain targeting of Ge in mice after i.v., i.n. and i.g. administration of Gardenia-Borneol co-compound; type: in vivo; details: for Kp / MRT last / Cmax / Tmax / AUC(0-t): mouse; for Kp: read-out: Te (brain/blood drug ratio); for MRT last / Cmax / Tmax / AUC0–120 / AUC(0-t): brain; for Cmax: 18 mg/kg gardenia extract + 18 mg/kg borneol; for AUC(0-t): read-out: AUC0–120 (converted)
# Protocol: The relative brain targeted coefficient was Re, Re = AUCbrain (i.n./i.g.)/AUCbrain (i.v.) × 100%. The brain/blood drug ratio was Te, Te = AUCbrain/AUCblood × 100%. So the drug target index was DTI, DTI = Te(i.n. /i.g.)/Te(i.v). […] AUC0–120 was 37270.5 ± 4160.6, 32413.6 ± 4573.9 and 6440.1 ± 863.7 […] for i.v., i.n. and i.g., respectively.
# as §1, §2, §3
# The brains were washed by normal saline to remove excess surface blood and were dried by filter paper. The bloodless brains were homogenized after mixing with normal saline solution 1.5 times to the weight. After centrifugation at 12,000 rpm for 5 min, 600 μL methanol (the brain homogenate was 300 μL) was added in the supernatant to precipitate proteins in the sample. After being vortexed for 1 min, the solution was centrifuged at 12,000 rpm for 5 min. Then, supernatant was removed and evaporated under air stream in a water bath at 60 °C. The residue was dissolved in 100 μL of methanol and vortexed for 30 s, centrifuged at 12,000 rpm for 5 min. 20 μL aliquot supernatant was injected into the HPLC system for analysis.
# [3] = octanol/water system; cited from earlier work
# [4] = cited from earlier work
# [5] = inhaled or intranasal, plasma, i.n.
# [6] = ICR, in vivo, po, 18 mg/kg, i.g.
# [7] = ICR, inhaled or intranasal, 18 mg/kg, i.n.
structure (smiles),measurement,setting,value
"COC(=O)C1=CO[C@@H](O[C@@H]2O[C@H](CO)[C@@H](O)[C@H](O)[C@H]2O)[C@@H]2C(CO)=CC[C@H]12 [Ge, geniposide]",Cmax in plasma relative to i.v.,[1]; i.g. vs i.v.,1/20
same,Cmax in plasma relative to i.v.,[1]; i.n. vs i.v.,up to 1/2
same,bioavailability,"[1]; in vivo, 18 mg/kg, i.g. vs i.v.",28.8%
same,bioavailability,"[1]; in vivo, 18 mg/kg, i.v. (reference), F = AUCblood(i.n./i.g.)/AUCblood(i.v.) × 100%",100%
same,Cmax,"[1]; in vivo, iv, plasma, i.v.",42400 ± 6270 ng/mL
same,AUC(0-t),"[1]; in vivo, iv, plasma, i.v.",5410 ng·h/mL
same,MRT last,"[1]; in vivo, iv, plasma, i.v.",15 min
same,Tmax,"[1]; in vivo, po, 18 mg/kg, plasma, i.g.",~30 min
same,Cmax,"[1]; in vivo, po, plasma, i.g.",1910 ± 327 ng/mL
same,AUC(0-t),"[1]; in vivo, po, plasma, i.g.",1560 ng·h/mL
same,MRT last,"[1]; in vivo, po, plasma, i.g.",42 min
same,Cmax,[1]; [5],21900 ± 5400 ng/mL
same,Tmax,[1]; [5],1 min
same,AUC(0-t),[1]; [5],4620 ng·h/mL
same,MRT last,[1]; [5],31.7 min
same,bioavailability,"[1]; plasma, other: i.n. (nasal drops), 18 mg/kg, i.n. vs i.v.",85.4%
same,Kp,"[2]; ICR, in vivo, i.g.",0.0689
same,Kp,"[2]; ICR, in vivo, i.n.",0.117
same,MRT last,"[2]; ICR, in vivo, iv, 18 mg/kg",48.3 min
same,Kp,"[2]; ICR, in vivo, iv, Te = AUCbrain/AUCblood × 100%",0.115
same,Cmax,"[2]; ICR, in vivo, iv, i.v.",1480 ± 145 ng/g
same,MRT last,[2]; [6],60 min
same,Tmax,[2]; [6],60 min
same,Cmax,"[2]; ICR, in vivo, po, i.g.",76.2 ± 22.1 ng/g
same,MRT last,[2]; [7],51.2 min
same,Tmax,[2]; [7],3 min
same,Cmax,"[2]; ICR, inhaled or intranasal, i.n.",747 ± 175 ng/g
same,AUC0–120,[2]; i.g.,6440.1 ± 863.7 ng·min/g
same,AUC0–120,[2]; i.n.,32413.6 ± 4573.9 ng·min/g
same,AUC0–120,[2]; i.v.,37270.5 ± 4160.6 ng·min/g
same,Re (relative brain targeted coefficient),[2]; i.g. vs i.v.,17.28% and 17.28 ^** %
same,brain peak concentration compared to the i.v. group,[2]; i.g. vs i.v.,1/20
same,DTI (drug target index),[2]; i.n. vs i.v.,1.02
same,Re (relative brain targeted coefficient),[2]; i.n. vs i.v.,86.97%
same,brain peak concentration compared to the i.v. group,[2]; i.n. vs i.v.,up to 1/2
same,DTI (drug target index),"[2]; i.v. (reference), DTI = Te(i.n./i.g.)/Te(i.v.)",1
same,Re (relative brain targeted coefficient),"[2]; i.v. (reference), Re = AUCbrain(i.n./i.g.)/AUCbrain(i.v.) × 100%",100%
same,AUC(0-t),"[2]; in vivo, inhaled or intranasal, 18 mg/kg, i.n.",540000 ng·h/mL
same,AUC(0-t),"[2]; in vivo, iv, 18 mg/kg, i.v.",621000 ng·h/mL
same,AUC(0-t),"[2]; in vivo, po, 18 mg/kg, i.g.",107000 ng·h/mL
same,Tmax,"[2]; in vivo, po, i.g.",~60 min
same,log p,[3],−0.97
same,intranasal absorption coefficient (K),[4]; Ge alone,0.061 h⁻¹
same,intranasal absorption coefficient (K),[4]; Ge in Gardenia-Borneol co-compound,0.11 h⁻¹
